Test results reported in US20030049287A1, “Catechol oximes and their use in cosmetic and dermatological preparations” (priority 1999, published 2003).

Legend:
[1] = DPPH test, activity as free-radical scavenger; assay type: biochemical; settings: DPPH 100 μmol/l in methanol, absorption at 515 nm
Description: The activity of the illustrative compounds as in examples 7 to 13 as free-radical scavengers was compared with the conventional free-radical scavenger and two examples from WO 95 01,157. For this, the DPPH (1,1-diphenyl-2-picryl-hydrazyl) test was used to eliminate free radicals.
DPPH was dissolved in methanol to a concentration of 100 μmol/l. A series of dilutions of the illustrative compounds, vitamin C, α-tocopherol and dibutylhydroxytoluene were prepared in methanol. Methanol was used as the control. 2500 μl of the DPPH solution were mixed with 500 μl of each test solution, and the decrease in the absorption at 515 nm was read off until the decrease was less than 2% per hour. The activity of the test substances as free-radical scavengers was calculated according to the following equation:
Activity as free-radical scavenger (%)=100−(absorption of the test compounds)/(absorption of the control)×100.
The activity of the free-radical scavengers (%) in a series of dilutions of test compounds was used to calculate, for each test compound, the effective relative concentration EC50 (based on the initially present concentration of DPPH, EC=c (test compound)/c(DPPH)) of a test compound at which 50% of the DPPH free radical had been eliminated.

[2] = Rancimat accelerated autoxidation of lipids by air, soybean oil; settings: antioxidative index = IP(with test solution)/IP(control sample), soybean oil purified over alumina, 0.05% test substance
Description: (§1) The activity of the illustrative compounds according to Examples 7 to 13 as antioxidants was compared with the conventional antioxidants and two examples from WO 95 01,157. The test system used was the accelerated autoxidation of lipids by air with or without antioxidant using the Rancimat apparatus (Rancimat is a registered trademark of Metrohm AG, Herisau, Switzerland).
(§2) The illustrative compounds, vitamin C, α-tocopherol and dibutyihydroxytoluene were dissolved in methanol or acetone and 100 μl of each test solution were added to a prepared oil sample of 3 g. In a control sample only solvent was added. A constant stream of dry air (20 l/h) was bubbled through the heated oil sample containing the test solution, and the volatile oxidation products (predominantly short-chain fatty acids such as formic acid or acetic acid) were collected in a receiver containing water. The conductivity of this aqueous solution was measured continuously and documented. The oxidation of (unsaturated) fats proceeds here only very slowly for a period of time and then suddenly increases greatly. The time to the increase is referred to as the induction period (IP).
(§3) The antioxidative index (AOI) was obtained according to the following equation:
(§4) AOI=IP(with test solution)/IP(control sample).

[3] = Rancimat accelerated autoxidation of lipids by air, squalene; settings: antioxidative index = IP(with test solution)/IP(control sample), squalene purified over alumina, stabilized with 1 ppm α-tocopherol, 0.005% test substance
Description: as §1, §2, §3, §4
The results for the experiment at 80° C. in squalene that was purified over alumina grade N and stabilized with 1 ppm of α-tocopherol are shown in table 4: […]

| EC50 (effective relative concentration, c(test compound)/c(DPPH), at which 50% of the DPPH free radical had been eliminated) [1] [mol/mol] | melting point | SMILES | AOI in soybean oil at 100° C. with 0.05% of test substance [2] | AOI in squalene at 80° C. with 0.005% of test substance [3] |
| --- | --- | --- | --- | --- |
| 0.090 | 177 °C (dec.) | ON=Cc1cc(O)c(O)c(O)c1 [Example 9, 3,4,5-Trihydroxybenzaldehyde oxime] | 20.9 | 150 |
| 0.053 | 143 °C (dec.) | ON=Cc1ccc(O)c(O)c1 [Example 7, 3,4-Dihydroxybenzaldehyde oxime] | 15.8 | 70 |
| 0.270 | – | O=C1O[C@H]([C@@H](O)CO)C(O)=C1O [Vitamin C, reference compound] | 1.2 | 0.7 |
| >3.0 | – | CC(=NO)c1ccccc1O [o-Hydroxyacetophenone oxime, reference compound] | 0.9 | 1.6 |

Second part, the compound before the results:

| SMILES | EC50 (effective relative concentration, c(test compound)/c(DPPH), at which 50% of the DPPH free radical had been eliminated) [1] [mol/mol] | melting point | AOI in soybean oil at 100° C. with 0.05% of test substance [2] | AOI in squalene at 80° C. with 0.005% of test substance [3] |
| --- | --- | --- | --- | --- |
| CCON=Cc1cc(O)c(O)c(O)c1 [Example 13, 3,4,5-Trihydroxybenzaldehyde O-ethyloxime] | 0.132 | 80 °C | 17.2 | 126 |
| Cc1ccc(CON=Cc2ccc(O)c(O)c2)cc1 [Example 11, 3,4-Dihydroxybenzaldehyde O-(4-methylbenzyl)oxime] | 0.131 | 85 to 86 °C | 14.1 | 50 |
| Cc1c(C)c2c(c(C)c1O)CC[C@@](C)(CCC[C@H](C)CCC[C@H](C)CCCC(C)C)O2 [α-Tocopherol, reference compound] | 0.250 | – | 5.1 | 39 |
| CC(=NO)c1ccc(O)c(O)c1 [Example 8, 3,4-Dihydroxyacetophenone oxime] | 0.073 | – | 16.6 | 95 |
| Cc1cc(C(C)(C)C)c(O)c(C(C)(C)C)c1 [Dibutylhydroxytoluene, reference compound] | 0.240 | – | 4.8 | 38 |
| CCON=C(C)c1ccc(O)c(O)c1 [Example 12, 3,4-Dihydroxyacetophenone O-ethyloxime] | 0.298 | – | 15.2 | 65 |
| CCON=Cc1ccc(O)c(O)c1 [Example 10, 3,4-Dihydroxybenzaldehyde O-ethyloxime] | 0.156 | < 23 °C | 17.3 | 85 |
